{"source": "patent US4492651A", "about": "“Cyclic hexapeptides” (American Home Products Corporation, priority 1983, dated 1985)", "tested_on": "growth hormone release", "assay": "suppression of growth hormone release in arginine stimulated rats (plasma GH by radioimmunoassay)", "type": "in vivo", "settings": "Nembutal-anaesthetised albino male rats, blood 15 min after peptide", "protocol": "The potent inhibition of growth hormone secretion was established for the compounds of this invention by subjecting the representative product of Example 5 to the following standard procedure involving suppression of growth hormone release in arginine stimulated rats:\nAlbino male rats are administered Nembutal intraperitoneally at a dose of 50 milligrams per kilogram. Fifteen minutes later a subcutaneous injection of the product of Example 5 is administered. Ten minutes later 0.5 milliliters of arginine (300 milligrams per milliliter, pH 7.2) is injected into the heart. Five minutes after receipt of the arginine the rats are decapitated and blood is collected into Trasylol-EDTA. An appropriate aliquot is assayed for growth hormone (GH) by radioimmuno-assay. The results of the test procedure were compared with those obtained in the same manner with Compound 8 of Table 2 disclosed by Veber et al., loc. cit., as follows: […]", "note": "Square brackets hold non-standard residues; d marks the D form.", "data": [{"substance": "cyclo(PF[dW]KTF) [Compound 8]", "values": [{"measurement": "Plasma GH Levels", "setting": "dose of peptide 0.1 μg/kg subcutaneous", "result": "278 ± 89", "unit": "ng/mL"}, {"measurement": "Plasma GH Levels", "setting": "dose of peptide 1.0 μg/kg subcutaneous", "result": "169 ± 19", "unit": "ng/mL"}, {"measurement": "Plasma GH Levels", "setting": "dose of peptide 10.0 μg/kg subcutaneous", "result": "126 ± 6", "unit": "ng/mL"}]}]}
